Measurements from US20250002954A1, “Novel Compound, Use Thereof, and Method for Producing Same, and Compound-Containing Composition, Method for Producing 4-Trehalosamine, and Microorganism” (Microbial Chemistry Research Foundation, priority 2021, published 2025).

Columns and labels:
[1] = tested on: Mycobacterium smegmatis mc^2 (ATCC 700084); experiment: Evaluation of mycobacterium-protective activity in freeze-dried condition; format: cell-based; settings: for Numbers of live bacterial cells (relative numbers): Mycobacterium smegmatis freeze-dried with 6% aqueous solution (final concentration 3%), test sample 3 (FD) = 1
Experimental: Using test samples 1 to 5 containing mycobacterium prepared in the following manner, microorganism-protective activity with trehalose or 4-trehalosamine in a freeze-dried condition was evaluated.
Frozen stock of mycobacterium ([…] Mycobacterium smegmatis mc^2 (American Type Culture Collection (ATCC) 700084)) was inoculated in 10 mL of Middlebrook 7H9 culture medium (manufactured by Becton, Dickinson and Company) and cultured at 37° C. for 72 hours while shaking it at 220 rpm. After culture, it was centrifuged at 3,000×g for 5 minutes, washed once with 10 mL of water, and then suspended in 10 mL of water, thus obtaining mycobacterium suspension. 50 μL of water was added to and mixed with 50 μL of this mycobacterium suspension, and the mixture was left to stand at 4° C. for 20 hours, preparing control (NF).
After mycobacterium suspension was prepared in a similar manner to test sample 1, 50 μL of 6% aqueous solution of trehalose was added to and mixed with 50 µL of the mycobacterium suspension, and the mixture was frozen at −80° C. for 10 minutes. It was then freeze-dried for 20 hours with a freeze dryer (FLEXI-DRY, manufactured by FTS systems INC., Warminster) connected to a vacuum pump (P65D, manufactured by PHIL Sato Vac INC.), preparing freeze-dried product (TRH) of mycobacterium with TRH.
Freeze-dried product (4TA) of mycobacterium with 4TA was obtained in a similar manner to the preparation method of test sample 4 except that trehalose was changed to 4-trehalosamine (4TA) in the preparation method of test sample 4.
For test samples 1 and 2, serial suspensions were made by diluting them to 1/10 with water. […]
Wells in which the number of colonies was measurable were selected and the numbers (relative numbers) of live bacterial cells per well on test samples 1, 2, 4, and 5 when the number of live bacterial cells per well on test sample 3 (FD) was “1” were calculated in consideration of the dilution concentrations of those test samples.

[2] = tested on: trehalase derived from pig kidney; experiment: Degradation by trehalase derived from pig kidney (glucose release); format: in vitro ADME; settings: 0.01 mM to 10 mM substrate, 0.24 units/mL, pH 5.7, 37° C., 20 minutes
Experimental: Trehalose (TRH) or the 4-trehalosamine (4TA) from the <Purification process> of production example 10 was added to and mixed with 135 mM sodium citrate buffer solution (pH 5.7) so that the final concentration was 0 mM, 0.01 mM, 0.1 mM, 1 mM, or 10 mM. Into them, trehalase derived from pig kidney (0.24 units/mL, manufactured by Sigma-Aldrich) was added and left to react at 37° C. for 20 minutes. Into the solution after reaction, a triple amount of Glucose assay reagent (manufactured by Sigma-Aldrich) was added and left to react at room temperature for 15 minutes. After that, absorbance at 340 nm was measured with a plate reader Cytation 5 (manufactured by Bio Tek Instruments) and the amount of glucose released as degradation product was estimated. FIG. 19B is a zoomed-in view of FIG. 19A.

[3] = tested on: aggregated proteins Q74 and SynA53T in SH-SY5Y cells and NH-12 cells; experiment: Elimination effect on aggregated protein in cells (Q74, SynA53T); format: cell-based, human; settings: 100 mM 4-trehalosamine, 70 μM IMCTA-C14 or 100 mM trehalose, 14 hours; SH-SY5Y and NH-12 cells
Experimental: The effect of 4-trehalosamine or trehalose analog on Q74, which is partial peptide of huntingtin (Htt), the causal protein of Huntington's disease, and SynA53T, which is a mutation of α-synuclein, the causal protein of Parkinson's disease, (both aggregated proteins) was determined in the following manner.
Neuroblastoma cells SH-SY5Y (obtained from European Collection of Authenticated Cell Cultures (ECACC)) and human neuroblastoma cells NH-12 (obtained from RIKEN BRC) were each inoculated at 14×10^4 cells/mL and cultured in DMEM culture medium at 37° C. for 48 hours.
After the culture of SH-SY5Y cells and NH-12 cells, pEGFP-Q74 vector or EGFP-alphasynuclein-A53T (both obtained from addgene), which are expression vectors of aggregated protein, were transfected with transfection reagent (Viafect, manufactured by Promega). After 24 hours from the transfection, 100 mM 4-trehalosamine, 70 μM IMCTA-C14, or 100 mM trehalose was added and the cells were further treated for 14 hours. Untreated cells without addition of the compounds were used as control. After washing the cells three times with PBS, hyposmotic fluid (solution of one tablet of cOmplete, Mini, EDTA-free Protease Inhibitor Cocktail (CM, manufactured by Merck) in 50 mL of pure water) was added and the mixture was shaken on ice for 10 minutes. It was then centrifuged at 21,300×g for 10 minutes to be separated into soluble protein (Sol) and aggregated protein (Agg) […]. Thereafter, they were turned into samples for western blotting in a similar manner to test example 10-1.
The western blotting was performed in a similar manner to test example 4 except that anti-GFP antibody (manufactured by Proteintech) was used at 1/5,000 dilution and anti-LC3 antibody (manufactured by Cell Signaling Technology) was used at 1/2,000 dilution as the primary antibodies in the method described in test example 4. The results for neuroblastoma cells SH-SY5Y are shown in FIGS. 22A and 22B, and the results for human neuroblastoma cells NH-12 are shown in FIGS. 22C and 22D. […]

SMILES | Numbers of live bacterial cells (relative numbers) [1] | protective effect on microorganisms, comparison ([1]; Mycobacterium smegmatis, freeze-dried) | degradation by pig trehalase (release of glucose) [2] | aggregate of Q74 and aggregate of SynA53T [3]
N[C@H]1[C@H](O)[C@@H](O)[C@@H](O[C@H]2O[C@H](CO)[C@@H](O)[C@H](O)[C@H]2O)O[C@@H]1CO [4-trehalosamine] | 100 | stronger than when trehalose was added | not degraded by pig trehalase | significantly decreased
OC[C@H]1O[C@H](O[C@H]2O[C@H](CO)[C@@H](O)[C@H](O)[C@H]2O)[C@H](O)[C@@H](O)[C@@H]1O [trehalose, reference compound] | 10 | – | degraded in this reaction and release of glucose was observed | significantly decreased
